Source: patent EP1392697B1, “ANTIDEPRESSANT AZAHETEROCYCLYMETHYL DERIVATIVES OF 2,3-DIHYDRO-1,4-DIOXINO 2,3-F]QUINOLINE” (Wyeth, priority 2001, dated 2002)

How the values were obtained:
human 5HT1A receptors = experiment: [3H] 8-OH-DPAT displacement binding, 5HT1A receptor affinity; conditions: displacement of [3H] 8-OH-DPAT; CHO cells stably transfected with human 5HT1A receptors
Source text: 8-OH-DPAT (dipropylamino-tetralin) from the 5HT1A serotonin receptor following a modification of the procedure of Hall et al., J. Neurochem.

[1] = target: cloned human 5HT1A receptors; experiment: 35S-GTPγS binding assay, 5HT1A antagonist activity; assay type: biochemical; conditions: reversal of the effects of the standard agonist 8-OH-DPAT, read-out: 5HT1A Function IC50
Source text: Agonists produce an increase in binding whereas antagonists produce no increase but rather reverse the effects of the standard agonist 8-OH-DPAT. The test compound's maximum inhibitory effect is represented as the Imax, while its potency is defined by the IC50.

serotonin transporter = experiment: 3H-paroxetine displacement binding, serotonin transporter affinity; conditions: displacement of 3H-paroxetine from male rat frontal cortical membranes; read-out: 5-HT Transporter Affinity KI

Row | Compound | Ki (human 5HT1A receptors) [nM] | IC50 [1] [nM] | Ki (serotonin transporter) [nM]
1 | CCc1cccc2c(CC3CCN(CC4COc5ccc6nc(C)ccc6c5O4)CC3)c[nH]c12 (stereo not drawn) [Example 19, 2-({4-[(7-Ethyl-1H-indol-3-yl)methyl]piperidin-1-yl}methyl)-8-methyl-2,3-dihydro[1,4]dioxino[2,3-f]quinoline] | 7.38 | 169 | 11
2 | Cc1ccc2c3c(ccc2n1)OCC(CN1CCC(Cc2c[nH]c4cc(Cl)ccc24)CC1)O3 (stereo not drawn) [Example 20, 2-({4-[(6-Chloro-1H-indol-3-yl)methyl]piperidin-1-yl}methyl)-8-methyl-2,3-dihydro[1,4]dioxino[2,3-f]quinoline] | 25.4 | 666 | 7
